The values that follow come from US11426473B2, “Nitrogen-containing compound or salt thereof, or metal complex thereof” (FUJIFILM Corporation, priority 2013, dated 2022).

One assay deals with T1, Integrin αvβ3 (Homo sapiens, UniProt P05106+P06756).
T1 construct: purchased Chemicon International, Inc
The assay can be described thus: Integrin αvβ3 binding affinity test. As to the method: (§1) […] αvβ3 (Chemicon International, Inc.) was immobilized on each well of a 96-well plate (Corning Inc.). Each well was blocked with a 1% Block Ace (DS Pharma Biomedical Co., Ltd) solution and then washed with T-PBS (PBS containing 0.05% Tween 20). Evaluation compound solutions having a 2-fold concentration (10 concentrations of 3.16-fold dilutions from 0.3 μmol/L, buffer (20 mM Tris-HCl pH 7.5, 150 mM NaCl, 1 mM CaCl2, 1 mM MgCl2, and 1 mM MnCl2)) and a 4 μg/mL biotinylated vitronectin solution (vitronectin (Upstate Biotechnology Inc.) was labeled with EZ-Link Sulfo-NHS-Biotinylation Kit (Pierce/Thermo Fisher Scientific Inc.) and then concentration-adjusted) were each added at 50 μL/well, and the plate was shaken at room temperature for 2 hours. After washing with T-PBS, a 0.2 μg/mL avidin peroxidase (Pierce/Thermo Fisher Scientific Inc.) solution was added thereto, and the plate was shaken at room temperature for 1 hour. After washing with T-PBS, color was developed by an o-phenylenediamine (Sigma-Aldrich Inc.) solution (the reaction was terminated by the addition of 4 mol/L sulfuric acid), and the absorbance was measured (490 nm, Reference: 595 nm). The IC50 value was calculated using XLfit 3.0 (ID Business Solutions Ltd.). RGDfV (Bachem AG) was measured in duplicate as a QC sample for each plate.

For the next assay, the target named is T2, Integrin αvβ5 (Homo sapiens, UniProt P06756+P18084).
T2 construct: purchased Chemicon International, Inc
Nature of the assay: Integrin αvβ5 binding affinity test. As to the method:
as §1, with “αvβ5” for “αvβ3”, “PBST (10 mM Na2HPO4 pH 7.5, 150 mM NaCl, and 0.01%” for “T-PBS (PBS containing 0.05%”, “PBST,” for “T-PBS,”

Setting [1] is: inhibition of biotinylated vitronectin binding to immobilized αvβ3, read-out: IC50 value αv β3.
[2] abbreviates: inhibition of biotinylated vitronectin binding to immobilized αvβ5, read-out: IC50 value αvβ5.

Where two headings read alike, the source gives them in different places.

T1 sequence (P06756 31-889 limits assumed): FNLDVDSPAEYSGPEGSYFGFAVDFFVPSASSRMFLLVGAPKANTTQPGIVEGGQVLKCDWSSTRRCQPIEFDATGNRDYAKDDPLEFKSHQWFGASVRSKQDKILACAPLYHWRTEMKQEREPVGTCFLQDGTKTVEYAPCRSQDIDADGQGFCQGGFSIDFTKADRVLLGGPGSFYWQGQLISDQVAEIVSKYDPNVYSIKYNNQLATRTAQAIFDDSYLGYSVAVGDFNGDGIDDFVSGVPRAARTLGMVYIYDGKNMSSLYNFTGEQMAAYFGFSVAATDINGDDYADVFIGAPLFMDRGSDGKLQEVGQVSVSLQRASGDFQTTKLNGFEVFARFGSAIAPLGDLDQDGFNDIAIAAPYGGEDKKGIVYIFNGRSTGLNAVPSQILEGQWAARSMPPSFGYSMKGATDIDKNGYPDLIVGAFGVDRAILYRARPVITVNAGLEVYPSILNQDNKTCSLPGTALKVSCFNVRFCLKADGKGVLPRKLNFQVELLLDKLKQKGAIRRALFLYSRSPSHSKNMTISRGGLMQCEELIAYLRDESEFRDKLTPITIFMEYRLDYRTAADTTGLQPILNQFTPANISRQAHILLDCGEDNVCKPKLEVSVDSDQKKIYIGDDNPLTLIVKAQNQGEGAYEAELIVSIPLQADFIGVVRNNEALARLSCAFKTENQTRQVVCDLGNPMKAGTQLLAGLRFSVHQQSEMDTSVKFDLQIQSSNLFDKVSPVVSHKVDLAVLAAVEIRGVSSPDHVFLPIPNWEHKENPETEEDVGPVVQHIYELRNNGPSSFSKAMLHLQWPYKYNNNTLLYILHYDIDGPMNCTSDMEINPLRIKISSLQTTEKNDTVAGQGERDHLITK
T1 sequence (P06756 891-1048 partner limits assumed): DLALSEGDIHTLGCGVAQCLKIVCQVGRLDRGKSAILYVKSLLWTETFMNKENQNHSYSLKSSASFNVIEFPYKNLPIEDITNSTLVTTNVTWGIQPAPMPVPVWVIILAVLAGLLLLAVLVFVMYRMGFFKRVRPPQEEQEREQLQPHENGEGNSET
T1 sequence (P05106 27-788): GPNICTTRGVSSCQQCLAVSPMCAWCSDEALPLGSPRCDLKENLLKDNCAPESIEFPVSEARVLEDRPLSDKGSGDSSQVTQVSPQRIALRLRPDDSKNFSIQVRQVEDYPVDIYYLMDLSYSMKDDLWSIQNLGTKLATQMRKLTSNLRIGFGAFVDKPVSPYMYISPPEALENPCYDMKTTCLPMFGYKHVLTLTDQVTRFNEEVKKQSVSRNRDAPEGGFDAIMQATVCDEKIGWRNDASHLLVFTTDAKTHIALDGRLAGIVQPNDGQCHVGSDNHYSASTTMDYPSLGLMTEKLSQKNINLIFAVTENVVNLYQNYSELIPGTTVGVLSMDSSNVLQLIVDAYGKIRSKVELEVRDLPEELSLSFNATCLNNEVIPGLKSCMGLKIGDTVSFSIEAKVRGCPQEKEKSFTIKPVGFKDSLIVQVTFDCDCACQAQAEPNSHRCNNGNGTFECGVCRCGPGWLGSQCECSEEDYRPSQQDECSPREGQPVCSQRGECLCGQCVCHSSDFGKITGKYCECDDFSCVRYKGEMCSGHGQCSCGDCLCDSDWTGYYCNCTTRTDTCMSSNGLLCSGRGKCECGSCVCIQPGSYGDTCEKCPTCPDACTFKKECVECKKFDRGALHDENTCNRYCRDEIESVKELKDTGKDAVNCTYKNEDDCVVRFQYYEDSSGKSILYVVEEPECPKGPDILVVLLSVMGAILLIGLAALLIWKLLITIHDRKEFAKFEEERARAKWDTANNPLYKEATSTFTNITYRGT
T2 sequence (P06756 31-889 limits assumed): as the sequence (P06756 31-889 limits assumed) above
T2 sequence (P06756 891-1048 partner limits assumed): as the sequence (P06756 891-1048 partner limits assumed) above
T2 sequence (P18084 24-799): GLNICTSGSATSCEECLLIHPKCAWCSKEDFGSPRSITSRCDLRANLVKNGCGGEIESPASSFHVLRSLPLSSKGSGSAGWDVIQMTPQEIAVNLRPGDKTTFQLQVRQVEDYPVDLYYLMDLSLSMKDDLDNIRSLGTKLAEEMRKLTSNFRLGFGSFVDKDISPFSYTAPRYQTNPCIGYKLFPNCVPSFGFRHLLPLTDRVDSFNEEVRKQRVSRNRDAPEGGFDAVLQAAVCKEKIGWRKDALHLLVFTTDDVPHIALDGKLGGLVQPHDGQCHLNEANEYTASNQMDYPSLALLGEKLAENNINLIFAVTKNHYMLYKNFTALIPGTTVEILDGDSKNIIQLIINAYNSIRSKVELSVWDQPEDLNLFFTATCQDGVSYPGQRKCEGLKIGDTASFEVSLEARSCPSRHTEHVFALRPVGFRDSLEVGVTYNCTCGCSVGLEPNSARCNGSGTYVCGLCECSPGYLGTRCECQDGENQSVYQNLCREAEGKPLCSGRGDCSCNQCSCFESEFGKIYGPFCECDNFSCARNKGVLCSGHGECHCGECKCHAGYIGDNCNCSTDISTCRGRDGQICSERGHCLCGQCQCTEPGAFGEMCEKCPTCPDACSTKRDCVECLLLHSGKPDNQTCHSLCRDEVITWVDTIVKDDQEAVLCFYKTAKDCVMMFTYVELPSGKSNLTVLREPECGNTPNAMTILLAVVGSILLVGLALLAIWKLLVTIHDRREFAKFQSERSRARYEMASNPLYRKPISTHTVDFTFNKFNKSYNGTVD

As to `Cc1cc(OCCCC(=O)NCCNC(=O)COCCOCCNC(=O)CN2CCN3CCN4CCN(CC2)CC(=O)[O][In]([O]C(=O)C3)[O]C(=O)C4)cc(C)c1S(=O)(=O)NC(CNC(=O)c1ccc(CCc2ccc3c(n2)NCCC3)cc1)C(=O)O` (stereo not shown) [BB], the IC50 at Integrin αvβ3 and at Integrin αvβ5 was < 1 nM each time.

`Cc1cc(OCCCC(=O)NCCNC(=O)[C@H](CS(=O)(=O)O)NC(=O)[C@H](CS(=O)(=O)O)NC(=O)CN2CCN(CC(=O)O)CCN(CC(=O)O)CCN(CC(=O)O)CC2)cc(C)c1S(=O)(=O)N[C@@H](CNC(=O)c1ccc(CCc2ccc3c(n2)NCCC3)cc1)C(=O)O` [Compound A8, 2,2′,2″-(10-((4R,7R)-16-(4-(N—((S)-1-carboxy-2-(4-(2-(5,6,7,8-tetrahydro-1,8-naphthyridin-2-yl)ethyl)benzamido)ethyl)sulfamoyl)-3,5-dimethylphenoxy)-2,5,8,13-tetraoxo-4,7-bis(sulfomethyl)-3,6,9,12-tetraazahexadecyl)-1,4,7,10-tetraazacyclododecane-1,4,7-triyl)triacetic acid]: the IC50 on Integrin αvβ3 (setting [1]) and on Integrin αvβ5 (setting [2]) was < 1 nM in each case.

On to `Cc1cc(OCCCC(=O)NCCNC(=O)[C@H](CS(=O)(=O)O)NC(=O)CN2CCN(CC(=O)O)CCN(CC(=O)O)CCN(CC(=O)O)CC2)cc(C)c1S(=O)(=O)N[C@@H](CNC(=O)c1ccc(CCc2ccc3c(n2)NCCC3)cc1)C(=O)O` [Compound B2, 2,2′,2″-(10-(2-(((R)-1-((2-(4-(4-(N—((S)-1-carboxy-2-(4-(2-(5,6,7,8-tetrahydro-1,8-naphthyridin-2-yl)ethyl)benzamido)ethyl)sulfamoyl)-3,5-dimethylphenoxy)butanamido)ethyl)amino)-1-oxo-3-sulfopropan-2-yl)amino)-2-oxoethyl)-1,4,7,10-tetraazacyclododecane-1,4,7-triyl)triacetic acid], for which the IC50 on Integrin αvβ3 (setting [1]) and on Integrin αvβ5 (setting [2]) was < 1 nM throughout.

As to `Cc1cc(OCCCC(=O)NCCNC(=O)COCCOCCNC(=O)CN2CCN(CC(=O)O)CCN(CC(=O)O)CCN(CC(=O)O)CC2)cc(C)c1S(=O)(=O)N[C@@H](CNC(=O)c1ccc(CCc2ccc3c(n2)NCCC3)cc1)C(=O)O` [Compound D3, (S)-2,2′,2′-(10-(19-(4-(N-(1-carboxy-2-(4-(2-(5,6,7,8-tetrahydro-1,8-naphthyridin-2-yl)ethyl)benzamido)ethyl)sulfamoyl)-3,5-dimethylphenoxy)-2,11,16-trioxo-6,9-dioxa-3,12,15-triazanonadecyl)-1,4,7,10-tetraazacyclododecane-1,4,7-triyl)triacetic acid], the IC50 on Integrin αvβ3 (setting [1]) and at Integrin αvβ5 (setting [2]) was < 1 nM each time.

With `Cc1cc(OCCCC(=O)NCCNC(=O)COCCOCCNC(=O)COCCOCCNC(=O)CN2CCN(CC(=O)O)CCN(CC(=O)O)CCN(CC(=O)O)CC2)cc(C)c1S(=O)(=O)N[C@@H](CNC(=O)c1ccc(CCc2ccc3c(n2)NCCC3)cc1)C(=O)O` [Compound F3, (S)-2,2′,2″-(10-(28-(4-(N-(1-carboxy-2-(4-(2-(5,6,7,8-tetrahydro-1,8-naphthyridin-2-yl)ethyl)benzamido)ethyl)sulfamoyl)-3,5-dimethylphenoxy)-2,11,20,25-tetraoxo-6,9,15,18-tetraoxa-3,12,21,24-tetraazaoctacosyl)-1,4,7,10-tetraazacyclododecane-1,4,7-triyl)triacetic acid], the IC50 on Integrin αvβ3 (setting [1]) and on Integrin αvβ5 (setting [2]) was < 1 nM in each case.

Regarding `Cc1cc(OCCCC(=O)NCCNC(=O)COCCOCCNC(=O)[C@H](CS(=O)(=O)O)NC(=O)CN2CCN(CC(=O)O)CCN(CC(=O)O)CCN(CC(=O)O)CC2)cc(C)c1S(=O)(=O)N[C@@H](CNC(=O)c1ccc(CCc2ccc3c(n2)NCCC3)cc1)C(=O)O` [Compound G3, 2,2′,2″-(10-((R)-22-(4-(N—((S)-1-carboxy-2-(4-(2-(5,6,7,8-tetrahydro-1,8-naphthyridin-2-yl)ethyl)benzamido)ethyl)sulfamoyl)-3,5-dimethylphenoxy)-2,5,14,19-tetraoxo-4-(sulfomethyl)-9,12-dioxa-3,6,15,18-tetraazadocosyl)-1,4,7,10-tetraazacyclododecane-1,4,7-triyl)triacetic acid], the IC50 on Integrin αvβ3 (setting [1]) and on Integrin αvβ5 (setting [2]) was < 1 nM in each case.

With `Cc1cc(OCCCC(=O)NCCNC(=O)[C@H](CS(=O)(=O)O)NC(=O)CCC(NC(=O)CN2CCN(CC(=O)O)CCN(CC(=O)O)CCN(CC(=O)O)CC2)C(=O)N[C@@H](CS(=O)(=O)O)C(=O)NCCNC(=O)CCCOc2cc(C)c(S(=O)(=O)N[C@@H](CNC(=O)c3ccc(CCc4ccc5c(n4)NCCC5)cc3)C(=O)O)c(C)c2)cc(C)c1S(=O)(=O)N[C@@H](CNC(=O)c1ccc(CCc2ccc3c(n2)NCCC3)cc1)C(=O)O` (stereo partly shown) [Compound H9], the IC50 at Integrin αvβ3 (setting [1]) and at Integrin αvβ5 (setting [2]) was < 1 nM in each case.

For `O=C(O)CC(c1cncc(OCCCC(=O)NCCNC(=O)[C@H](CS(=O)(=O)O)NC(=O)[C@H](CS(=O)(=O)O)NC(=O)CN2CCN(CC(=O)O)CCN(CC(=O)O)CCN(CC(=O)O)CC2)c1)n1ccc2cc(OCCc3ccc4c(n3)NCCC4)ccc21` (stereo partly drawn) [Compound I21, 2,2′,2″-(10-((4R,7R)-16-((5-(2-carboxy-1-(5-(2-(5,6,7,8-tetrahydro-1,8-naphthyridin-2-yl)ethoxy)-1H-indol-1-yl)ethyl)pyridin-3-yl)oxy)-2,5,8,13-tetraoxo-4,7-bis(sulfomethyl)-3,6,9,12-tetraazahexadecyl)-1,4,7,10-tetraazacyclododecane-1,4,7-triyl)triacetic acid], the IC50 on Integrin αvβ3 (setting [1]) and at Integrin αvβ5 (setting [2]) was < 1 nM throughout.

Regarding `O=C(O)CC(c1cncc(OCCCC(=O)NCCNC(=O)[C@H](CS(=O)(=O)O)NC(=O)[C@H](CS(=O)(=O)O)NC(=O)CN2CCN(CC(=O)O)CCN(CC(=O)O)CCN(CC(=O)O)CC2)c1)n1ccc2c(CCc3ccc4c(n3)NCCC4)cccc21` (stereo partly drawn) [Compound J9, 2,2′,2″-(10-((4R,7R)-16-((5-(2-carboxy-1-(4-(2-(5,6,7,8-tetrahydro-1,8-naphthyridin-2-yl)ethyl)-1H-indol-1-yl)ethyl)pyridin-3-yl)oxy)-2,5,8,13-tetraoxo-4,7-bis(sulfomethyl)-3,6,9,12-tetraazahexadecyl)-1,4,7,10-tetraazacyclododecane-1,4,7-triyl)triacetic acid], the IC50 (in general, the point on the concentration scale where inhibition reaches its midpoint) at Integrin αvβ3 (setting [1]) was < 1 nM; on Integrin αvβ5 (setting [2]), 1 to 10 nM.

For the molecule `Cc1cc(OCCCC(=O)NCCNC(=O)[C@H](CS(=O)(=O)O)NC(=O)CN2CCN(CC(=O)O)CCN(CC(=O)O)CCN(CC(=O)O)CC2)cc(C)c1S(=O)(=O)N[C@H](CNC(=O)CCCCc1ccc2c(n1)NCCC2)C(=O)O` [Compound K8, 2,2′,2′-(10-(2-(((R)-1-((2-(4-(4-(N—((R)-1-carboxy-2-(5-(5,6,7,8-tetrahydro-1,8-naphthyridin-2-yl)pentanamido)ethyl)sulfamoyl)-3,5-dimethylphenoxy)butanamido)ethyl)amino)-1-oxo-3-sulfopropan-2-yl)amino)-2-oxoethyl)-1,4,7,10-tetraazacyclododecane-1,4,7-triyl)triacetic acid], the IC50 at Integrin αvβ3 (setting [1]) is < 1 nM; at Integrin αvβ5 (setting [2]), 1 to 10 nM.

As to `Cc1cc(OCCCC(=O)NCCNC(=O)[C@H](CS(=O)(=O)O)NC(=O)CC[C@H](NC(=O)CN2CCN(CC(=O)O)CCN(CC(=O)O)CCN(CC(=O)O)CC2)C(=O)N[C@@H](CS(=O)(=O)O)C(=O)NCCNC(=O)CCCOc2cc(C)c(S(=O)(=O)N[C@@H](CNC(=O)c3ccc(CCc4cccc(N)n4)cc3)C(=O)O)c(C)c2)cc(C)c1S(=O)(=O)N[C@@H](CNC(=O)c1ccc(CCc2cccc(N)n2)cc1)C(=O)O` [Compound L10], the IC50 on Integrin αvβ3 (setting [1]) and at Integrin αvβ5 (setting [2]) was < 1 nM in each case.
